Experimental data published in patent US7419812B2, “Sequences encoding PhzO and methods” (The United States of America as represented by the …, priority 2000, dated 2008).
Where “and” joins values, the source holds several entries; their conditions need not be identical. Identical values can stand only once.

Experiment: Spontaneous conversion (decarboxylation) of synthetic 2-OH-PCA to 2-OH-PHZ in phosphate buffer, RP-HPLC
Type: physicochemical
Method: Since phenazine-producing Pseudomonas spp. often produce mixtures of phenazine compounds, a generalized HPLC protocol for detection of these metabolites was developed. The protocol utilized a NOVA-PAK C18 reverse-phase Radial-PAK cartridge (4 μm, 8×100 mm) (Waters Corp., Milford, Mass.), and solvent conditions consisting of a 2-min initial wash with 35% ACN/0.1% TFA in H2O followed by a 25-min linear gradient to 100% ACN/0.1% TFA at a flow rate of 1.0 ml/min. The Waters HPLC system included a 710B WISP, 510 pumps, and a 680 automated gradient controller with a 990 photodiode array detector (Waters Corp.). Phenazine compounds were identified by retention time and ultraviolet spectrum. Standards included compounds purified from well-characterized strains (Mavrodi et al, 1998, supra; Pierson and Thomashow, 1992, supra) and chemically-synthesized compounds (PCA, 2-OH-PCA, and 2-OH-PHZ) obtained from Colour Your Enzyme (Bath, Ontario, Canada). […] 2-OHPHZ, which is formed by spontaneous decarboxylation of 2-OH-PCA (see below), was therefore used as an indicator of 2-hydroxyphenazine synthesis and when necessary, the presence of 2-OH-PCA in samples containing PCA was determined by peak purity and spectral analyses using the Waters 991 photodiode array (Waters Corp.).
Expression and Functional Analysis of PhzO. The phzO gene from P. aureofaciens 30-84 was cloned in pUCP26 under the control of the lac promoter and expressed in E. coli JM109. Cells from induced cultures expressing PhzO produced a unique band of approximately 55 kDa on SDS-PAGE gels, in good agreement with the size predicted by nucleotide sequence analysis. Induced cultures of E. coli expressing PhzO converted PCA (0.3 or 0.5 mg/ml in 5% NaHCO3) to 2-OH-PCA and 2-OH-PHZ within 3 h, whereas no such conversion occurred in control cultures harboring only pUCP26 (FIG. 2). […] To determine whether PhzO is responsible for this reaction in P. aureofaciens 30-84, a tetracycline resistance gene was inserted into phzO and introduced in the genome by homologous recombination. […]

O=C(O)c1c(O)ccc2nc3ccccc3nc12 [2-OH-PCA, 2-hydroxyphenazine-1-carboxylic acid]
2-OH-PHZ as share of the total phenazine present (0.1 M sodium phosphate buffer pH 4.0, 18 h): 0.2%
2-OH-PCA initially present converted to 2-OH-PHZ (0.1 M sodium phosphate buffer pH 6.0, 18 h): 33% and 33.3%
2-OH-PCA initially present converted to 2-OH-PHZ (0.1 M sodium phosphate buffer pH 8.0, 18 h): 62% and 64%
